The results in this text go back to paper PMC10695737, “Crystal Modifications of a Cyclic Guanosine Phosphorothioate Analogue, a Drug Candidate for Retinal Neurodegenerations” (ChemistryOpen, 2023).

Holding throughout (type): physicochemical
A short description of series [1]: Thermal analysis (DSC/TGA), decomposition. The settings on record: for Onset of decomposition (DSC exotherm): DSC 25 to 300 °C, 10 °C/min. The method, then:
Differential scanning calorimetry (DSC) analyses were carried out on a Mettler DSC822e, equipped with a Thermo Haake EK45/MT cooler. The samples were weighed into a 40 μL Al‐cup, which were then closed with a pierced lid. The sample was scanned from 25 to 300 °C, with a scan rate of 10 °C/min.
Thermogravimetric analysis (TGA) was performed on a Mettler TGA/SDTA 851e, equipped with a Haake C50P cooler. Alternatively, thermogravimetric and DSC analyses were carried out simultaneously in a Mettler Toledo TGA/DSC 3+. The samples were weighed into a 100 μL Al‐cup and this was flushed with dry nitrogen gas during the analysis. The sample was scanned from 25 to 300 °C, with a scan rate of 10 °C/min.

The nature of series [2]: Phase solubility in deionized water (HPLC). The settings on record: for pH of mixture: aqueous solubility measurements, supplement; for pH at saturation solubility / solubility: deionized H2O, quadruplicates. The method, then: The pH‐solubility profile of cGMPSA salts and free acid was determined by phase solubility techniques.[18] Briefly, saturated mixtures of the compound were prepared by adding excess amount to 4 mL vials containing 2 mL deionized water, an acidic buffer (0.1 M HCl(aq), pH 1), or a basic buffer (0.1 M NaOH(aq), pH 13). They were allowed to equilibrate for 24 h using mild agitation before recording the pH. The clear solution was separated from the solids by filtration with a Cytiva Whatman™ Mini‐Uniprep™ polypropylene 0.45 μm filter device and diluted to an appropriate analytical concentration where needed. The sample was then analyzed by HPLC, and the solubility determined by integrating the area of the peak of interest against a standard curve. The solids were also analyzed by XRPD to record the crystal modification obtained.

The nature of series [3]: Dynamic vapor sorption (DVS), water sorption as Δm. The note with it: for Water sorption Δm: 25 °C; for Observed Δm: DVS step compared to theoretical hydrate mass change; for Stable %RH range: RH range of the corresponding hydrate step on DVS; for change in mass (Δm): at 95 % relative humidity (maximum RH), stated in text; for Δm after desorption: equilibrated value after desorption cycles. The method, then:
The samples were analyzed at 25 °C with a Surface Measurements Systems DVS Advantage. A sample was weighted into a weighing pan and its mass was monitored while it was exposed to different relative humidities (%RH=%P/P0). Before the analysis, the weighing pan was subject to an antistatic program.
The analysis program consisted of two cycles. In each cycle, the relative humidity was increased stepwise up to 95 % RH (starting from 0 % RH, 9 steps with 10 % and one step with 5 %) and then decreased stepwise to 0 % RH again. In both sorption/desorption cycles, at each step, the sample was kept at the set relative humidity until dm/dt <0.002 %, over 15 min.

Where [4] appears, read: 0 % RH, after final desorption cycle 2 (D2).
Setting [5] is: 30 % RH, desorption cycle 2 (D2).
[6] abbreviates: 60 % RH, desorption cycle 2 (D2).
The mark [7] stands for this setting: 95 % RH, desorption cycle 2 (D2).
[8] abbreviates: hydrate step stable over 40–70 % RH.
Setting [9] is: hydrate step stable over 60–95 % RH.

Structures are written as SMILES. Where “and” joins values, the source holds several entries; their conditions need not be identical. Equal values may be shown once.

Take `O=c1c2nc(Br)n([C@@H]3O[C@@H]4COP(=O)(S)O[C@H]4[C@H]3O)c2nc2[nH]c(-c3ccccc3)cn12` (stereo partly shown) [cGMPSA‐H]: in series [1], the “Onset of decomposition (DSC exotherm)” value was 163.6 °C and ~ 163 °C. For the same molecule, the pH of mixture in series [2] is on record as 2,47. Moreover, in series [2], the “pH at saturation solubility” value is 2.5 (±0.2). Moreover, the solubility in series [2] is recorded as 1.7 (±0.1) mg/mL. Moreover, the “Water sorption Δm” value worked out at 0.3% in series [3] (setting [4]); 5.7% in series [3] (setting [5]); 5.3% in series [3] (30 % RH, sorption cycle 1 (S1)); 6.7% in series [3] (setting [6]); 6.2% in series [3] (60 % RH, sorption cycle 1 (S1)); 9.3% in series [3] (setting [7]). Also, in series [3] (95 % RH, sorption cycle 1 (S1)), the “Water sorption Δm” value is on record as 9.1%.
With `NC(CO)(CO)CO.O=c1c2nc(Br)n([C@@H]3O[C@@H]4CO[P@@](O)(=S)O[C@H]4[C@H]3O)c2nc2[nH]c(-c3ccccc3)cn12` [cGMPSA‐Tris, Tris(hydroxymethyl)aminomethane RP-8-Bromo-β-phenyl-1,N2-ethenoguanosine-3′,5′-cyclicmonophosphorothiotic acid], in series [2], the pH of mixture is 8,45. Besides, in series [2], the “pH at saturation solubility” value was 8.5 (±0.1). Also, the solubility in series [2] was 13.5 (±3.5) mg/mL; in series [2] (listed as ‐Tris), roughly 15 mg/mL. For the same molecule, the “Water sorption Δm” value in series [3] (setting [4]) is listed as 3.3%; in series [3] (setting [5]), 5.5%; in series [3] (30 % RH, sorption cycle 1 (S1)), 4.9%; in series [3] (setting [6]) it was 6.8%; in series [3] (60 % RH, sorption cycle 1 (S1)), 6.0%; in series [3] (setting [7]), 32.4%. For the same molecule, in series [3] (95 % RH, sorption cycle 1 (S1)), the “Water sorption Δm” value amounted to 32.8%. The “Observed Δm” value in series [3] amounted to 3.3%. In addition, in series [3], the “Stable %RH range” value was 0–70 %RH. Moreover, the “change in mass (Δm)” value in series [3] was 32%. The “initial early sorption Δm” value in series [3] (consistent with 1 equivalent of H2O) was roughly 3%. The Δm after desorption in series [3] (0 % RH) is on record as 3.3.
Regarding `O=c1c2nc(Br)n([C@@H]3O[C@@H]4COP(=O)([S-])O[C@H]4[C@H]3O)c2nc2[nH]c(-c3ccccc3)cn12.O=c1c2nc(Br)n([C@@H]3O[C@@H]4COP(=O)([S-])O[C@H]4[C@H]3O)c2nc2[nH]c(-c3ccccc3)cn12.[Ca+2]` (stereo partly shown) [cGMPSA‐Ca], in series [1] (DSC), the enthalpy of decomposition is 162.3 J/g. For the same molecule, the “Onset of decomposition (DSC exotherm)” value in series [1] came out at 253.2 °C. The pH of mixture in series [2] is given as 6,88. The “pH at saturation solubility” value in series [2] is 6.9 (±0.5). Besides, in series [2], the solubility is 0.28 (±0.2) mg/mL. Further, the “Water sorption Δm” value amounted to 1.9% in series [3] (setting [4]); 12.4% in series [3] (setting [5]); 5.3% in series [3] (30 % RH, sorption cycle 1 (S1)); 15.5% in series [3] (setting [6]); 7.1% in series [3] (60 % RH, sorption cycle 1 (S1)); 22.0% in series [3] (setting [7]). Moreover, the “Water sorption Δm” value in series [3] (95 % RH, sorption cycle 1 (S1)) was found to be 21.9%. Also, in series [3], the “Observed Δm” value was found to be 1.9%. The “Stable %RH range” value in series [3] was 0 %RH. Further, the “change in mass (Δm)” value in series [3] amounted to 22%.
With `O=c1c2nc(Br)n([C@@H]3O[C@@H]4CO[P@@](O)(=S)O[C@H]4[C@H]3O)c2nc2[nH]c(-c3ccccc3)cn12.c1ccc(CCNCc2ccccc2)cc1` [cGMPSA‐Bnet, N-(Phenylmethyl)benzeneethanammonium RP-8-Bromo-β-phenyl-1,N2-ethenoguanosine-3′,5′-cyclicmonophosphorothioate], the pH of mixture in series [2] was 7,17. The “pH at saturation solubility” value in series [2] is 7.2 (±0.04). In addition, in series [2], the solubility was 0.05 (±0.03) mg/mL. In addition, the “Water sorption Δm” value in series [3] (setting [4]) is 0.7%; in series [3] (setting [5]) it was 4.4%; in series [3] (30 % RH, sorption cycle 1 (S1)), 3.4%; in series [3] (setting [6]), 6.1%; in series [3] (60 % RH, sorption cycle 1 (S1)), 5.2%; in series [3] (setting [7]) it was 7.7%. Further, in series [3] (95 % RH, sorption cycle 1 (S1)), the “Water sorption Δm” value came out at 8.0%.
Take `O=c1c2nc(Br)n([C@@H]3O[C@@H]4CO[P@@](O)(=S)O[C@H]4[C@H]3O)c2nc2[nH]c(-c3ccccc3)cn12.O=c1c2nc(Br)n([C@@H]3O[C@@H]4CO[P@@](O)(=S)O[C@H]4[C@H]3O)c2nc2[nH]c(-c3ccccc3)cn12.c1ccc(CNCCNCc2ccccc2)cc1` [cGMPSA‐BZ, N,N′-Dibenzylethylenediammonium RP-8-Bromo-β-phenyl-1,N2-ethenoguanosine-3′,5′-cyclicmonophosphorothioate (1:2)]: the pH of mixture in series [2] is given as 6,81. For the same molecule, the “pH at saturation solubility” value in series [2] is on record as 6.8 (±0.1). The solubility in series [2] is listed as 0.01 (±0.01) mg/mL. For the same molecule, the “Water sorption Δm” value is on record as −0.2% in series [3] (setting [4]); 0.7% in series [3] (setting [5]); 0.6% in series [3] (30 % RH, sorption cycle 1 (S1)); 3.9% in series [3] (setting [6]); 1.9% in series [3] (60 % RH, sorption cycle 1 (S1)); 4.7% in series [3] (setting [7]). Besides, the “Water sorption Δm” value in series [3] (95 % RH, sorption cycle 1 (S1)) came to 4.8%. Besides, the results for the “Observed Δm” value in series [3] (setting [8]) and in series [3] (setting [9]) were 1.3% and 3.9%, respectively. The “Stable %RH range” value in series [3] (setting [8]) is reported as 40–70 %RH; in series [3] (setting [9]), 60–95 %RH. The “change in mass (Δm)” value is reported as 5% in series [3] and “about 5%” in series [3] (listed as ‐BZ).
`N.O=c1c2nc(Br)n([C@@H]3O[C@@H]4COP(=O)(S)O[C@H]4[C@H]3O)c2nc2[nH]c(-c3ccccc3)cn12` (stereo partly shown) [cGMPSA‐NH4]: in series [2], the pH of mixture is listed as 3,16, the “pH at saturation solubility” value is 3.2 (±0.1) and the solubility was 7.9 (±8.0) mg/mL.
Turning to `O=c1c2nc(Br)n([C@@H]3O[C@@H]4COP(=O)([S-])O[C@H]4[C@H]3O)c2nc2[nH]c(-c3ccccc3)cn12.[Na+]` (stereo partly shown) [cGMPSA‐Na], in series [1], the “Onset of decomposition (DSC exotherm)” value was found to be 212 °C. The pH of mixture in series [2] was 5,45. For the same molecule, the “pH at saturation solubility” value in series [2] was 5.5 (±0.2). The solubility is recorded as 38.4 (±11.1) mg/mL in series [2], 38 mg/mL in series [2] (listed as sodium) and “approximately 40 mg/mL” in series [2] (listed as ‐Na). Moreover, the “Water sorption Δm” value was −0.3% in series [3] (setting [4]); 6.3% in series [3] (setting [5]); 2.2% in series [3] (30 % RH, sorption cycle 1 (S1)); 12.5% in series [3] (setting [6]); 8.1% in series [3] (60 % RH, sorption cycle 1 (S1)); 15.1% in series [3] (setting [7]). For the same molecule, the “Water sorption Δm” value in series [3] (95 % RH, sorption cycle 1 (S1)) was 15.1%. Besides, the Δm after desorption in series [3] (0 % RH) is ~ 0.
